According to patent US20240269304A1, “BCL-XL INHIBITOR ANTIBODY-DRUG CONJUGATES AND METHODS OF USE THEREOF” (Novartis AG, priority 2020, published 2024):
Where two headings read alike, the source gives them in different places.

System: H1650 cells
Test: CellTiterGlo (CTG) cell viability, 3D, 120 h, H1650 (Example 8)
Format: cell-based, human
Method: H1650 cells were cultivated in RPMI supplemented with 10% heat inactivated fetal bovine serum, penicillin (100 IU/ml), streptomycin (100 μg/ml) and L-glutamine (2 mM). Cell lines were cultured at 37° C. in a humidified atmosphere containing 5% 002. Cells were seeded in 96 microwell round bottom plates (96 microwell Low attachment plates , Costar reference 7007) and exposed to the payloads or ADCs for 120 h (serially diluted; 9 concentrations each, duplicates). Effects of payloads or ADCs on cell viability were assessed after 5 days of incubation at 37° C./5% CO2 by quantification of cellular ATP levels using CellTiterGlo at 75 μL reagent/well. All the conditions were tested in duplicates. Luminescence was quantified on a multipurpose plate reader. IC50S were calculated using standard four-parametric curve fitting. […] Each experiment was performed at least twice, with results being reproducible.

[1] = Homo sapiens, NCI-H1650, H1650 3D, experiment n1, read-out: H1650 3D CTG IC50 n1
[2] = Homo sapiens, NCI-H1650, H1650 3D, experiment n2, read-out: H1650 3D CTG IC50 n2
[3] = Homo sapiens, NCI-H1650, H1650 3D, mean of n1 and n2, read-out: H1650 3D CTG IC50 Mean of n1 and n2
[4] = H1650 3D, experiment n1, read-out: H1650 3D CTG IC50 n1
[5] = H1650 3D, experiment n2, read-out: H1650 3D CTG IC50 n2
[6] = H1650 3D, mean of n1 and n2, read-out: H1650 3D CTG IC50 Mean of n1 and n2

Structure (SMILES) | IC50 [1] [nM] | IC50 [2] [nM] | IC50 [3] [nM] | IC50 [4] [nM] | IC50 [5] [nM] | IC50 [6] [nM]
Cc1c(Nc2nc3ccccc3s2)nnc2c1CCCN2c1ccc(-c2cnn(C[C@]34C[C@]5(C)C[C@](C)(C3)C[C@@](OCCNC(CO)CO)(C5)C4)c2C)c(C(=O)O)n1 [P24, 6-[3-(1,3-benzothiazol-2-ylamino)-4-methyl-6,7-dihydro-5H-pyrido[2,3-c]pyridazin-8-yl]-3-[1-[[3-[2-[[2-hydroxy-1-(hydroxymethyl)ethyl]amino]ethoxy]-5,7-dimethyl-1-adamantyl]methyl]-5-methyl-pyrazol-4-yl]pyridine-2-carboxylic acid] | 2.1 | 1.8 | 1.95 |  |  | 
Cc1ccc2nc(Nc3nnc4c(c3C)CCCN4c3ccc(-c4cnn(CC56CC7(C)CC(C)(C5)CC(OCCN5CCCC5)(C7)C6)c4C)c(C(=O)O)n3)sc2c1 [P64, 3-[1-[[3,5-dimethyl-7-(2-pyrrolidin-1-ylethoxy)-1-adamantyl]methyl]-5-methyl-pyrazol-4-yl]-6-[4-methyl-3-[(6-methyl-1,3-benzothiazol-2-yl)amino]-6,7-dihydro-5H-pyrido[2,3-c]pyridazin-8-yl]pyridine-2-carboxylic acid] | 1.6 | 2.9 | 2.25 |  |  | 
Cc1c(Nc2nc3ccccc3s2)nnc2c1CCCN2c1ccc(-c2cnn(CC34CC5(C)CC(C)(CC(CCCN(C)CCC(=O)O)(C5)C3)C4)c2C)c(C(=O)O)n1 [P56, 6-[3-(1,3-benzothiazol-2-ylamino)-4-methyl-6,7-dihydro-5H-pyrido[2,3-c]pyridazin-8-yl]-3-[1-[[3-[3-[2-carboxyethyl(methyl)amino]propyl]-5,7-dimethyl-1-adamantyl]methyl]-5-methyl-pyrazol-4-yl]pyridine-2-carboxylic acid] | 13.9 | 2.95 | 8.43 |  |  | 
Cc1c(Nc2nc3ccccc3s2)nnc2c1CCCN2c1ccc(-c2cnn(CC34CC5(C)CC(C)(CC(CCCNCCCCO)(C5)C3)C4)c2C)c(C(=O)O)n1 [P72, 6-[3-(1,3-benzothiazol-2-ylamino)-4-methyl-6,7-dihydro-5H-pyrido[2,3-c]pyridazin-8-yl]-3-[1-[[3-[3-(4-hydroxybutylamino)propyl]-5,7-dimethyl-1-adamantyl]methyl]-5-methyl-pyrazol-4-yl]pyridine-2-carboxylic acid] | 5.07 | 5.57 | 5.32 |  |  | 
Cc1c(Nc2nc3ccccc3s2)nnc2c1CCCN2c1ccc(-c2cnn(C[C@]34C[C@]5(C)C[C@](C)(C3)C[C@@](OCCN(C)CCCCO)(C5)C4)c2C)c(C(=O)O)n1 [P37, 6-[3-(1,3-benzothiazol-2-ylamino)-4-methyl-6,7-dihydro-5H-pyrido[2,3-c]pyridazin-8-yl]-3-[1-[[3-[2-[4-hydroxybutyl(methyl)amino]ethoxy]-5,7-dimethyl-1-adamantyl]methyl]-5-methyl-pyrazol-4-yl]pyridine-2-carboxylic acid] | 0.4 | 1.2 | 0.8 |  |  | 
Cc1c(Nc2nc3ccccc3s2)nnc2c1CCCN2c1nc(C(=O)O)c(CCCOc2ccc(C#CCN3CCC(F)(F)CC3)cc2F)s1 [P15, 2-{3-[(1,3-Benzothiazol-2-yl)amino]-4-methyl-5H,6H,7H,8H-pyrido[2,3-c]pyridazin-8-yl}-5-(3-{4-[3-(4,4-difluoropiperidin-1-yl)prop-1-yn-1-yl]-2-fluorophenoxy}propyl)-1,3-thiazole-4-carboxylic acid] | 0.98 | 1.2 | 1.09 |  |  | 
Cc1c(Nc2nc3ccccc3s2)nnc2c1CCCN2c1ccc(-c2cnn(C[C@]34C[C@]5(C)C[C@](C)(C3)C[C@@](OCCN3CCNCC3)(C5)C4)c2C)c(C(=O)O)n1 [P31, 6-[3-(1,3-benzothiazol-2-ylamino)-4-methyl-6,7-dihydro-5H-pyrido[2,3-c]pyridazin-8-yl]-3-[1-[[3,5-dimethyl-7-(2-piperazin-1-ylethoxy)-1-adamantyl]methyl]-5-methyl-pyrazol-4-yl]pyridine-2-carboxylic acid] | 0.57 | 1.4 | 0.99 |  |  | 
COCCCNCCOC12CC3(C)CC(C)(CC(Cn4ncc(-c5ccc(N(C)c6cc(C)c(Nc7nc8ccccc8s7)nn6)nc5C(=O)O)c4C)(C3)C1)C2 [P29, 6-[[6-(1,3-benzothiazol-2-ylamino)-5-methyl-pyridazin-3-yl]-methyl-amino]-3-[1-[[3-[2-(3-methoxypropylamino)ethoxy]-5,7-dimethyl-1-adamantyl]methyl]-5-methyl-pyrazol-4-yl]pyridine-2-carboxylic acid] | 0.57 | 0.47 | 0.52 |  |  | 
CNCCOC1Cc2c(nnc(Nc3nc4ccccc4s3)c2C)N(c2nc(C(=O)O)c(CCCOc3ccc(C#CCN(C)C)cc3F)s2)C1 (stereo not drawn) [P16, 2-{3-[(1,3-Benzothiazol-2-yl)amino]-4-methyl-6-[2-(methylamino)ethoxy]-5H,6H,7H,8H-pyrido[2,3-c]pyridazin-8-yl}-5-(3-{4-[3-(dimethylamino)prop-1-yn-1-yl]-2-fluorophenoxy}propyl)-1,3-thiazole-4-carboxylic acid] | 6.1 | 6.2 | 6.15 |  |  | 
Cc1cc(N(C)c2nc(C(=O)[O-])c(CCCOc3ccc(C#CC[N+](C)(C)Cc4ccc(NC(=O)[C@H](C)NC(=O)[C@@H](NC(=O)CCOCCN5C(=O)CC(C)C5=O)C(C)C)cc4CC[C@@H]4O[C@H](C(=O)O)[C@@H](O)[C@H](O)[C@H]4O)cc3F)s2)nnc1Nc1nc2ccccc2s1 (stereo partly drawn) [Ab C - L106A-P2] |  |  |  | 1 | 0.7 | 0.85
Cc1cc(N(C)c2nc(C(=O)O)c(CCCOc3ccc(C#CC[N+](C)(C)Cc4ccc(NC(=O)[C@H](CCCNC(N)=O)NC(=O)[C@@H](NC(=O)CCOCCN5C(=O)CC(C)C5=O)C(C)C)cc4)cc3F)s2)nnc1Nc1nc2ccccc2s1 (stereo partly drawn) [Ab C - L9A-P2] |  |  |  | 4.2 | 7 | 5.6
Cc1c(Nc2nc3ccccc3s2)nnc2c1CCCN2c1ccc(-c2cnn(CC34CC5(C)CC(C)(C3)CC(OCCN(C)CC(=O)O)(C5)C4)c2C)c(C(=O)O)n1 [P48, 6-[3-(1,3-benzothiazol-2-ylamino)-4-methyl-6,7-dihydro-5H-pyrido[2,3-c]pyridazin-8-yl]-3-[1-[[3-[2-[carboxymethyl(methyl)amino]ethoxy]-5,7-dimethyl-1-adamantyl]methyl]-5-methyl-pyrazol-4-yl]pyridine-2-carboxylic acid] | 2.27 | 2.79 | 2.53 |  |  | 
Cc1c(Nc2nc3ccccc3s2)nnc2c1CCCN2c1ccc(-c2cnn(CC34CC5(C)CC(C)(CC(CCCN(C)CCO)(C5)C3)C4)c2C)c(C(=O)O)n1 [P49, 6-[3-(1,3-benzothiazol-2-ylamino)-4-methyl-6,7-dihydro-5H-pyrido[2,3-c]pyridazin-8-yl]-3-[1-[[3-[3-[2-hydroxyethyl(methyl)amino]propyl]-5,7-dimethyl-1-adamantyl]methyl]-5-methyl-pyrazol-4-yl]pyridine-2-carboxylic acid] | 1.3 | 1.12 | 1.21 |  |  | 
Cc1c(Nc2nc3ccccc3s2)nnc2c1CCCN2c1nc(C(=O)O)c(CCCOc2ccc(C#CCN(C)CC[C@H](O)CO)cc2F)s1 [P34, 2-[3-(1,3-benzothiazol-2-ylamino)-4-methyl-6,7-dihydro-5H-pyrido[2,3-c]pyridazin-8-yl]-5-[3-[4-[3-[[(3S)-3,4-dihydroxybutyl]-methyl-amino]prop-1-ynyl]-2-fluoro-phenoxy]propyl]thiazole-4-carboxylic acid] | 0.65 | 0.87 | 0.76 |  |  | 
Cc1c(Nc2nc3ccccc3s2)nnc2c1CCCN2c1ccc(-c2cnn(CC34CC5(C)CC(C)(CC(CCCN6CCCCCC6)(C5)C3)C4)c2C)c(C(=O)O)n1 [P52, 3-[1-[[3-[3-(azepan-1-yl)propyl]-5,7-dimethyl-1-adamantyl]methyl]-5-methyl-pyrazol-4-yl]-6-[3-(1,3-benzothiazol-2-ylamino)-4-methyl-6,7-dihydro-5H-pyrido[2,3-c]pyridazin-8-yl]pyridine-2-carboxylic acid] | 0.73 | 0.38 | 0.555 |  |  | 
COCCCN(C)CCOC12CC3(C)CC(C)(CC(Cn4ncc(-c5ccc(N6CCCc7c6nnc(Nc6nc8ccccc8s6)c7C)nc5C(=O)O)c4C)(C3)C1)C2 [P36, 6-[3-(1,3-benzothiazol-2-ylamino)-4-methyl-6,7-dihydro-5H-pyrido[2,3-c]pyridazin-8-yl]-3-[1-[[3-[2-[3-methoxypropyl(methyl)amino]ethoxy]-5,7-dimethyl-1-adamantyl]methyl]-5-methyl-pyrazol-4-yl]pyridine-2-carboxylic acid] | 0.26 | 0.31 | 0.29 |  |  | 
Cc1c(Nc2nc3ccccc3s2)nnc2c1CCCN2c1ccc(-c2cnn(CC34CC5(C)CC(C)(CC(CCCN(C)C)(C5)C3)C4)c2C)c(C(=O)O)n1 [P66, 6-[3-(1,3-benzothiazol-2-ylamino)-4-methyl-6,7-dihydro-5H-pyrido[2,3-c]pyridazin-8-yl]-3-[1-[[3-[3-(dimethylamino)propyl]-5,7-dimethyl-1-adamantyl]methyl]-5-methyl-pyrazol-4-yl]pyridine-2-carboxylic acid] | 0.49 | 0.22 | 0.355 |  |  | 
